From patent US20060121449A1, “Method for selection of compounds which inhibit clonal cell growth and use thereof” (priority 2002, published 2006)
Entries after “also recorded” stand apart in the source; their conditions may differ.

Key:
[1] = tested on: polyoma virus transformed BHK21/c13 cells, line S100T1; experiment: Collocation inhibition test: clonal growth in sparsely and densely seeded areas of a cell density gradient of S100T1 cells in soft agar (Exp 13, 17, 19-26); details: for Significance: Exp 17 day 14;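 for Clonal growth, H high density area of cell gradient, High: grades rise with clonal growth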;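 for Clonal growth, H high density area of cell gradient, Low: grades rise with clonal growth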;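 for Clonal growth, H high density area of cell gradient, Medium: grades rise with clonal growth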;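 for Clonal growth, L low density area of cell gradient, High: grades rise with clonal growth and minus or plus-minus means none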;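 for Clonal growth, L low density area of cell gradient, Low: grades rise with clonal growth and minus or plus-minus means none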;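 for Clonal growth, L low density area of cell gradient, Medium: grades rise with clonal growth and minus or plus-minus means none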;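 for all read-outs here: soft agar cultures in 24-well plates with a cell density gradient in the top layer, compounds applied from DMSO stocks, clonal growth scored in sparse versus dense areas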
[2] = tested on: polyoma virus transformed BHK21/c13 cells, clone S100T1; experiment: Clonal test: clonal growth of S100T1 cells in soft agar (Exp 2, 4, 6, 15, 16); assay type: cell-based, hamster
[3] = preliminary results, Exp 13-18, 21-26, high concentration
[4] = preliminary results, Exp 13-18, 21-26, low concentration
[5] = preliminary results, Exp 13-18, 21-26, medium concentration
[6] = Exp 15, 32000 S100T1 cells/well

COc1cc([C@@H]2c3cc4c(cc3[C@H](O)[C@H]3COC(=O)[C@H]23)OCO4)cc(OC)c1OC [Podophyllotoxin]
Effect on growth in high- and low-density areas ([1]; Exp 17, 144000 S100T1 cells/well): growth inhibition of both high and low-density areas; also recorded: significant inhibition of growth in crowded areas | Clonal growth, results read on the day 14 ([1]; Exp 17, a: close to densely seeded cell areas, High: Colchicine 1, Podophyllotoxin 3, Etoposide 200, 4-OH—OPB 6.7 μM in wells, DMSO 29.2 μl): (+) | Clonal growth, results read on the day 14 ([1]; Exp 17, a: close to densely seeded cell areas, Low: Colchicine 0.1, Podophyllotoxin 0.3, Etoposide 20, 4-OH—OPB 0.67 μM in wells, DMSO 1.16 μl): (+ | Clonal growth, results read on the day 14 ([1]; Exp 17, a: close to densely seeded cell areas, Medium: Colchicine 0.3, Podophyllotoxin 0.9, Etoposide 60, 4-OH—OPB 2 μM in wells, DMSO 6.8 μl): (+ | Clonal growth, results read on the day 14 ([1]; Exp 17, b: sparsely seeded areas in the same agar culture, High: Colchicine 1, Podophyllotoxin 3, Etoposide 200, 4-OH—OPB 6.7 μM in wells, DMSO 29.2 μl): (+) | Clonal growth, results read on the day 14 ([1]; Exp 17, b: sparsely seeded areas in the same agar culture, Low: Colchicine 0.1, Podophyllotoxin 0.3, Etoposide 20, 4-OH—OPB 0.67 μM in wells, DMSO 1.16 μl): + | Clonal growth, results read on the day 14 ([1]; Exp 17, b: sparsely seeded areas in the same agar culture, Medium: Colchicine 0.3, Podophyllotoxin 0.9, Etoposide 60, 4-OH—OPB 2 μM in wells, DMSO 6.8 μl): + | Clones in sparsely seeded locations of the agar ([1]; Exp 17, compared with 4-OH-OPB): allow the growth of a few small clones in sparsely seeded locations of the agar; also recorded: to allow the growth of a few small clones in sparsely | Significance ([1]; a: close to densely seeded cell areas, High: Colchicine 1, Podophyllotoxin 3, Etoposide 200, 4-OH—OPB 6.7 μM in wells, DMSO 29.2 μl): Possible | Significance ([1]; a: close to densely seeded cell areas, Low: Colchicine 0.1, Podophyllotoxin 0.3, Etoposide 20, 4-OH—OPB 0.67 μM in wells, DMSO 1.16 μl): Doubtful | Significance ([1]; a: close to densely seeded cell areas, Medium: Colchicine 0.3, Podophyllotoxin 0.9, Etoposide 60, 4-OH—OPB 2 μM in wells, DMSO 6.8 μl): Doubtful | Significance ([1]; b: sparsely seeded areas, High: Colchicine 1, Podophyllotoxin 3, Etoposide 200, 4-OH—OPB 6.7 μM in wells, DMSO 29.2 μl): Possible | Significance ([1]; b: sparsely seeded areas, Low: Colchicine 0.1, Podophyllotoxin 0.3, Etoposide 20, 4-OH—OPB 0.67 μM in wells, DMSO 1.16 μl): No | Significance ([1]; b: sparsely seeded areas, Medium: Colchicine 0.3, Podophyllotoxin 0.9, Etoposide 60, 4-OH—OPB 2 μM in wells, DMSO 6.8 μl): No | Control of metastatic cells leaving tumour ([1]; ability of cells to leave a tumour, grow and infiltrate locally or grow in sparsely seeded areas, concluded from Exp 17): probably not | Clonal growth, H high density area of cell gradient, High [1, 3]: (+) | Clonal growth, L low density area of cell gradient, High [1, 3]: (+) | Clonal growth, H high density area of cell gradient, Low [1, 4]: (+ | Clonal growth, L low density area of cell gradient, Low [1, 4]: + | Clonal growth, H high density area of cell gradient, Medium [1, 5]: (+ | Clonal growth, L low density area of cell gradient, Medium [1, 5]: + | Effect on cell cloning in soft agar ([1]; preliminary results, in words): cytotoxic | Control of settlement of metastatic cells ([1]; single cells or very few cells spread to distant sites, concluded from Exp 17): partly | Toxicity for body or dense cell populations ([1]; supposed main advantages or disadvantages if used in cancer treatment, concluded from Exp 17): yes | Tolerating long duration of treatment ([1]; supposed, if used in cancer treatment): no | Effect on clonal growth at 0.03 μM [2, 6]: no significant inhibition | Effect on clonal growth at 0.3 μM [2, 6]: inhibited significantly | Concentration inhibiting clones significantly ([2]; Exp 16): More than 0.065 μM Podophyllotoxin inhibited clones | Colony inhibiting activity for dosage within a range that might be therapeutic ([2]; Exp 16, about 40000 S100T1 cells/well): the same activity possibly existed | Significance ([2]; Exp 16 day 14, Podophyllotoxin No 5 (lot 12K1562, solved in DMSO 8 days beforehand, stored frozen), 0.3 μM): probable | Growth ([2]; Exp 16 day 14, Podophyllotoxin No 5 (lot 12K1562, solved in DMSO 8 days beforehand, stored frozen), 0.3 μM in wells): (+)) | Growth ([2]; Exp 16 day 14, Podophyllotoxin No 5 (lot 12K1562, solved in DMSO 8 days beforehand, stored frozen), 3 μM in wells): (+)) | Significance ([2]; Exp 16 day 14, Podophyllotoxin No 5 (lot 12K1562, solved in DMSO 8 days beforehand, stored frozen), 3 μM, ” = as line above): ” and probable and prob- | Significance ([2]; Exp 16 day 14, Podophyllotoxin No 6 (lot 12K1562, solved in DMSO the same day), 0.03 μM): no | Significance ([2]; Exp 16 day 14, Podophyllotoxin No 6 (lot 12K1562, solved in DMSO the same day), 0.065 μM): possible | Growth ([2]; Exp 16 day 14, Podophyllotoxin No 6 (lot 12K1562, solved in DMSO the same day), 0.065 μM in wells): (+) | Significance ([2]; Exp 16 day 14, Podophyllotoxin No 7 (lot 12K1562, solved in DMSO the same day), 0.139 μM): probable | Growth ([2]; Exp 16 day 14, Podophyllotoxin No 7 (lot 12K1562, solved in DMSO the same day), 0.139 μM in wells): (+)) | Growth ([2]; Exp 16 day 14, Podophyllotoxin No 7 (lot 12K1562, solved in DMSO the same day), 0.3 μM in wells): (+) | Significance ([2]; Exp 16 day 14, Podophyllotoxin No 7 (lot 12K1562, solved in DMSO the same day), 0.3 μM, ” = as line above): ” and possible | Significance ([2]; Exp 16 day 21, Podophyllotoxin No 5 (lot 12K1562, solved in DMSO 8 days beforehand, stored frozen), 0.3 μM): doubtful | Growth ([2]; Exp 16 day 21, Podophyllotoxin No 5 (lot 12K1562, solved in DMSO 8 days beforehand, stored frozen), 0.3 μM in wells): (+ | Significance ([2]; Exp 16 day 21, Podophyllotoxin No 5 (lot 12K1562, solved in DMSO 8 days beforehand, stored frozen), 3 μM): probable | Growth ([2]; Exp 16 day 21, Podophyllotoxin No 5 (lot 12K1562, solved in DMSO 8 days beforehand, stored frozen), 3 μM in wells): (+)) | Significance ([2]; Exp 16 day 21, Podophyllotoxin No 6 (lot 12K1562, solved in DMSO the same day), 0.03 μM): no | Growth ([2]; Exp 16 day 21, Podophyllotoxin No 6 (lot 12K1562, solved in DMSO the same day), 0.03 μM in wells): ++ | Significance ([2]; Exp 16 day 21, Podophyllotoxin No 6 (lot 12K1562, solved in DMSO the same day), 0.065 μM): doubtful | Growth ([2]; Exp 16 day 21, Podophyllotoxin No 6 (lot 12K1562, solved in DMSO the same day), 0.065 μM in wells): (+ | Significance ([2]; Exp 16 day 21, Podophyllotoxin No 7 (lot 12K1562, solved in DMSO the same day), 0.139 μM): doubtful | Growth ([2]; Exp 16 day 21, Podophyllotoxin No 7 (lot 12K1562, solved in DMSO the same day), 0.139 μM in wells): (+ | Significance ([2]; Exp 16 day 21, Podophyllotoxin No 7 (lot 12K1562, solved in DMSO the same day), 0.3 μM): possible | Growth ([2]; Exp 16 day 21, Podophyllotoxin No 7 (lot 12K1562, solved in DMSO the same day), 0.3 μM in wells): (+)
